Reference: ChEMBL document CHEMBL4673228, “Futunamine, a Pyrrole-Imidazole Alkaloid from the Sponge Stylissa aff. carteri Collected off the Futuna Islands” (J Nat Prod, 2020)
Activity calls are given as the source filed them. No cut-off for these calls is given here.

Columns and labels:
BV-2 [1] = experiment: Inhibition of LPS-induced NO production in mouse BV-2 cells at 0.1 to 1 uM preincubated for 1 hrs followed by LPS-stimulation and measured after 24 hrs by Griess reagent based spectrophotometric assay; type: functional, cell-based; details: dose 0.1-1 µM
SH-SY5Y [2] = experiment: Neuroprotective activity against TBHP-induced human SH-SY5Y cells assessed as decrease in ROS production at 1 uM after 6 hrs by DCFH-DA dye based spectrophotometric assay relative to control; type: functional; parameters: scale not given: the % may be the effect or the level left
SH-SY5Y [3] = experiment: Neuroprotective activity against TBHP-induced cytotoxicity in human SH-SY5Y cells assessed as increase in cell viability at 0.001 uM after 6 hrs by MTT assay; type: functional, cell-based
BV-2 [4] = experiment: Cytotoxicity against mouse BV-2 cells assessed as reduction in cell viability at 0.001 to 10 uM after 24 hrs by MTT assay; type: cell-based; details: bv-2, 24 h, dose 0.001-10 µM
SH-SY5Y [5] = experiment: Cytotoxicity against human SH-SY5Y cells assessed as reduction in cell viability at 0.001 to 10 uM after 24 hrs by MTT assay; type: cell-based; details: dose 0.001-10 µM
SH-SY5Y [6] = experiment: Neuroprotective activity against TBHP-induced human SH-SY5Y cells assessed as decrease in ROS production at 0.001 to 10 uM after 6 hrs by DCFH-DA dye based spectrophotometric assay relative to control; type: functional; parameters: scale not given: the % may be the effect or the level left; details: dose 0.001-10 µM
SH-SY5Y [7] = experiment: Neuroprotective activity against TBHP-induced cytotoxicity in human SH-SY5Y cells assessed as increase in cell viability at 10 uM after 6 hrs by MTT assay; type: functional, cell-based

Nc1nc(/C=C/CNC(=O)c2cc(Br)c[nH]2)c[nH]1
inhibition (BV-2 [1]): Active
Activity (SH-SY5Y [2]): >25%
Activity (SH-SY5Y [3]): Active
Activity (BV-2 [4]): Non-Toxic
Activity (SH-SY5Y [5]): Non-Toxic

Nc1ncc(/C=C/CNC(=O)c2cc(Br)c(Br)[nH]2)[nH]1 [OROIDIN]
Activity (SH-SY5Y [3]): Active
Activity (BV-2 [4]): Non-Toxic
Activity (SH-SY5Y [5]): Non-Toxic

C[C@]1(COC(=O)c2cc(Br)c[nH]2)C[C@@H](C(=O)O)N=CN1 [MANZACIDIN A]
Activity (SH-SY5Y [2]): >25%
Activity (SH-SY5Y [3]): Active
Activity (BV-2 [4]): Non-Toxic
Activity (SH-SY5Y [5]): Non-Toxic

NC1=N[C@]2([C@H](O)N1)[C@@H](Cl)[C@H](CNC(=O)c1cc(Br)c(Br)[nH]1)[C@H]1CN3C(=O)c4cccn4[C@@H]4N=C(N)N[C@@]43[C@@H]12.O=C(O)C(F)(F)F.O=C(O)C(F)(F)F
inhibition (BV-2 [1]): Active
Activity (SH-SY5Y [6]): 35%
Activity (BV-2 [4]): Non-Toxic
Activity (SH-SY5Y [5]): Non-Toxic

Nc1nc([C@H]2[C@H](CNC(=O)c3cc(Br)c(Br)[nH]3)/C(=C\CNC(=O)c3ccc[nH]3)c3cnc(N)n32)c[nH]1
Activity (SH-SY5Y [6]): 35%
Activity (SH-SY5Y [7]): Active
Activity (BV-2 [4]): Non-Toxic
Activity (SH-SY5Y [5]): Non-Toxic

NC1=N[C@]2([C@H](O)N1)[C@@H](Cl)[C@H](CNC(=O)c1cc(Br)c(Br)[nH]1)[C@H]1CN3C(=O)c4[nH]ccc4[C@@H]4N=C(N)N[C@@]43[C@@H]12.O=C(O)C(F)(F)F.O=C(O)C(F)(F)F
Activity (BV-2 [4]): Non-Toxic
Activity (SH-SY5Y [5]): Non-Toxic
